{
  "source": "paper PMC7503225",
  "about": "“Repositioning Dequalinium as Potent Muscarinic Allosteric Ligand by Combining Virtual Screening Campaigns and Experimental Binding Assays” (International Journal of Molecular Sciences, 2020)",
  "molecular_target": "T1, [3H]-NMS-occupied muscarinic hM5 subtype (Homo sapiens, UniProt P08912)",
  "T1 construct": "expressed in transfected cells; host or cells: CHO cells, stably transfected; membrane fractions",
  "T1 sequence (P08912 1-532)": "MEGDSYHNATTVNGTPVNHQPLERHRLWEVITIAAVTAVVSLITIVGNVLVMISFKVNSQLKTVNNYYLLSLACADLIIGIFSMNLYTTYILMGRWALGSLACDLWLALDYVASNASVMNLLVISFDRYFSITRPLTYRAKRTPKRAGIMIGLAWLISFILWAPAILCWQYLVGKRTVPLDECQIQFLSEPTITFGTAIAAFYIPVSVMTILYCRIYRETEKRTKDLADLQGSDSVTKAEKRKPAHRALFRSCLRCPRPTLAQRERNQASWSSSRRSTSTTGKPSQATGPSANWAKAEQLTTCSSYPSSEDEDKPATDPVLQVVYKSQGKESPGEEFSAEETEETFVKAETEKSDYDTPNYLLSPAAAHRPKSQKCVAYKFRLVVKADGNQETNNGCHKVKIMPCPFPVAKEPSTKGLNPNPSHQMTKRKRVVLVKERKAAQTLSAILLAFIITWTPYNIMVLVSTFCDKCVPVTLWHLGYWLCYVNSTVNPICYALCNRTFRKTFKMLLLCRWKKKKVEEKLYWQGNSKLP",
  "assay": "One point kinetic (off-rate) assay of [3H]-NMS dissociation",
  "assay_type": "binding",
  "conditions": "read-out: log Kocc hM5 (converted)",
  "experimental": "All tested compounds were purchased from Merck KGaA (Darmstadt, Germany). The radioligand binding experiments were performed with membranes from Chinese Hamster Ovary (CHO) cells stably transfected with the five cloned human muscarinic receptor subtypes (hM1-5). Membrane fractions were prepared according to the protocol, which have been previously described; membranes were stored at −80 °C until use. Nonspecific binding was defined by the radioactivity bound in the presence of 10 µM atropine.\nOff-rate assays were performed as described elsewhere to estimate the affinity of the ligands for the [^3H]-NMS-occupied receptor (log Kocc). Briefly, a high concentration of membranes (about 0.1 mg/mL) was incubated with a high concentration of [^3H]-NMS (2 nM) for 60 min at room temperature (mix membrane). Next, 100 µL aliquots were distributed into polypropylene tubes that were empty or in a final volume of 1 mL binding buffer with 1 µM atropine alone and in the presence of a range of concentrations of tested compound (1 nM–0.1 mM).\nThe effect on the radioligand dissociation of each tested ligand was determined at 0 min and at one time point, which was chosen to be ca 2.5 dissociation half-lives of [^3H]-NMS alone from each subtype receptors. Later (80 min for hM1, 20 min for hM2 and 70 min for hM5), the samples were filtered and counted as previously reported. Non specific binding was measured as previously reported.\nData from one-point kinetic experiments were analyzed in order to obtain estimates of the affinity of an allosteric ligand for the [^3H]-NMS occupied receptor (log Kocc) in a single step, using an equation introduced in GraphPad Prism 5.02 [33, 34].\nAll the results are expressed as means ± SEM obtained from 3-4 independent experiments each one performed in duplicate.",
  "data": [
    {"smiles": "Cc1cc(N)c2ccccc2[n+]1CCCCCCCCCC[n+]1c(C)cc(N)c2ccccc21", "note": "[dequalinium]", "values": [
      {"measurement": "Kd", "result": 3.31, "unit": "µM"}
    ]}
  ]
}
